Assay [1] concerns the target T1, 20S eukaryotic proteasome (Oryctolagus cuniculus, UniProt G1T4Q9).
T1 construct: purchased BOSTON BIOCHEM (Cambridge, Mass.)
T1 sequence (G1T4Q9 1-263): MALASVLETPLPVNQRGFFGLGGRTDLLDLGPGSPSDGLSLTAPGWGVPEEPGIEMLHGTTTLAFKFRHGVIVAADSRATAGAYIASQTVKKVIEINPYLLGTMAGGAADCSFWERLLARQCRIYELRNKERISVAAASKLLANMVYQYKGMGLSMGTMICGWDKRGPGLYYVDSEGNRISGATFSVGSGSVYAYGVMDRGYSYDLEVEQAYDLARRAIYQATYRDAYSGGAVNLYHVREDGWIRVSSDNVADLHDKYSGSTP
The assay is described as follows: Inhibition of chymotrypsin-like activity of purified eukaryotic 20S proteasome (Suc-Leu-Leu-Val-Tyr-AMC). The format is biochemical, rabbit. Particulars: for pIC50: chymotrypsin-like activity, rabbit 20S proteasome. Summed up: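 Purified rabbit 20S proteasome (0.02 μg) incubated with 20 μM Suc-LLVY-AMC for 30 min at 37° C in Tris-HCl pH 7.5, with or without compound. Chymotrypsin-like activity read as released AMC fluorescence (Ex 380 or 355 nm/Em 460 nm).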

The subject of assay [2] is LNCaP cells. The assay is described as follows: Flow cytometry cell cycle analysis, LNCaP cells. It counts as cell-based, human. Particulars: 10 μM, 24 hours. On the procedure: Flow Cytometry. Cell cycle analysis based on DNA content was performed as in An et al. (An, B. et al. Cell Death Differ, 1998, 5:1062-75). At each time point, cells were harvested, counted, and washed twice with PBS. Cells (5×10^6) were suspended in 0.5 ml PBS, fixed in 5 ml of 70% ethanol overnight at −20° C., centrifuged, resuspended again in 1 ml of propidium iodide staining solution (50 μg propidium iodide, 100 units RNase A and 1 mg glucose per ml PBS), and incubated at room temperature for 30 minutes. The cells were then analyzed with FACScan (Becton Dickinson Immunocytometry, Calif.), ModFit LT and WinMDI V.2.8 cell cycle analysis software (Verity Software; Topsham, Me.). The cell cycle distribution is shown as the percentage of cells containing G1, S, G2, and M phase DNA judged by propidium iodide staining The apoptotic population is determined as the percentage of cells with sub-G1 DNA content (<G1).
It has been shown that overexpression of p27 and IκB-α results in G1 arrest. If increased levels of these proteasome target proteins by synthetic GTPs are functional, it would be expected to see growth arrest of tumor cells in G1 phase. To test this hypothesis, asynchronous prostate LNCaP cells were treated with 10 μM of synthetic (+)-EGCG or (+)-GCG, along with each respective natural GTP as control, for 24 hours. Cells were then harvested, and analyzed by cell cycle analysis by flow cytometry. […] Growth arrest was determined by the increase in the percentage of the G1 population.

From patent publication US9399631B2, “Polyphenol proteasome inhibitors, synthesis, and methods of use” (UNIVERSITY OF SOUTH FLORIDA, priority 2003, dated 2016) come the findings set out here.

pIC50: −log10 of the molar value.

For the compound `O=C(O[C@@H]1Cc2c(O)cc(O)cc2O[C@@H]1c1cc(O)c(O)c(O)c1)c1cc(O)c(O)c(O)c1` [(−)-EGCG, (−)-epigallocatechin-3-gallate, reference compound], in assay [1] (1 μM, 0.01% SDS added after 1 hour (SDS-post)), the “reversal of proteasome inhibition by SDS” value is on record as “could not reverse the EGCG-mediated proteasome inhibition”. Besides, the “inhibition of chymotrypsin-like activity” value is reported as 35% in assay [1] (1 μM, 5 min); 62% in assay [1] (1 μM, 30 min); 70-80% in assay [1] (1 μM, after 1 to 3 hours); “up to 75%” in assay [1] (1 μM, no SDS); 10-20% in assay [1] (1 μM, pre-incubation with 0.01% SDS for 1 hour (SDS-pre)). This compound showed a pIC50 in assay [1] of 6.69. Besides, the “increase of G1 population (G1 arrest)” value in assay [2] is recorded as around 14%.
For `O=C(N[C@@H]1Cc2c(O)cc(O)cc2O[C@@H]1c1cc(O)c(O)c(O)c1)c1cc(O)c(O)c(O)c1` [(−)-EGCG-amide, (−)-[2R,3R]-N-[5,7-Dihydroxy-2-(3,4,5-trihydroxyphenyl)-chroman-3-yl]-3,4,5-trihydroxybenzamide], the pIC50 in assay [1] is 6.49.
In the case of `O=C(OC1Cc2c(O)cc(O)cc2OC1c1cc(O)c(O)c(O)c1)c1cc(O)c(O)c(O)c1` (single isomer, unassigned; (+)) [(+)-GCG], the negative logarithm of the IC50 (pIC50) in assay [1] is 6.57. Moreover, the “increase of G1 population (G1 arrest)” value in assay [2] is around 14%.
On to `O=C(OC1Cc2c(O)cc(O)cc2OC1c1cc(O)c(O)c(O)c1)c1cc(O)c(O)c(O)c1` (single isomer, unassigned; (+)) [(+)-EGCG], for which, in assay [1], the pIC50 is 6.77. In assay [2], the “increase in G1 arrest as compared to (−)-EGCG” value is recorded as “approximately 30%” and the “increase of G1 population (G1 arrest)” value was 18%.
